According to publication PMC7240875 (Integrative Cancer Therapies, 2018):

Key:
Type in all cases: cell-based
[1] = molecular target: T1, NAD(P)H:quinone oxidoreductase-1 (NQO1) (Homo sapiens, UniProt P15559); test: NQO1 activity; details: KKU100, read-out: % inhibition at 4.55 μM
[2] = molecular target: T1, NAD(P)H:quinone oxidoreductase-1 (NQO1); test: single-concentration NQO1 activity screen; details: read-out: % inhibition at 4.55 μM
[3] = molecular target: T1, NAD(P)H:quinone oxidoreductase-1 (NQO1); test: NQO1 activity; details: KKU100, read-out: % inhibition at 4.55 μM; remark: listed apart in the source

T1 sequence (P15559 whole entry): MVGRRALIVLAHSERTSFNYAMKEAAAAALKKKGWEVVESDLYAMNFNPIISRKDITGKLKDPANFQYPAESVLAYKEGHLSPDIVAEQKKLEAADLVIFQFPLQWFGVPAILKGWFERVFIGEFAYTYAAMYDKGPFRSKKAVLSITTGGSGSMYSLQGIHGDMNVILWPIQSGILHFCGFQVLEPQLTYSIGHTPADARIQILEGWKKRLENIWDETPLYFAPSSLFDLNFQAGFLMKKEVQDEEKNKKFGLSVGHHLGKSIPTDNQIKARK

| inhibition at 4.55 µM [1] [%] | inhibition at 4.55 µM [3] [%] | SMILES | other results |
| --- | --- | --- | --- |
| 41.8 |  | O=c1ccc2ccccc2o1 [coumarin] |  |
|  | 63.5 | O=c1ccc2ccc(O)cc2o1 [umbelliferone] |  |

The remaining lines, values behind:

| SMILES | inhibition at 4.55 µM [1] [%] | inhibition at 4.55 µM [3] [%] | other results |
| --- | --- | --- | --- |
| O=c1ccc2cc(O)c(O)cc2o1 [aesculetin] | 34.9 |  |  |
| O=c1cc(-c2ccc(O)c(O)c2)oc2cc(O)cc(O)c12 [luteolin] |  |  | inhibition at 4.55 µM [2]: 55% |
| COc1cc2ccc(=O)oc2cc1O [scopoletin] |  | 77.4 |  |
